Measured values published in patent US6933290B2, “2-{N-(2-amino-3-(heteroaryl or aryl)propionyl)-aminoacyl}-amino}-alkylboronic acid derivatives” (Novartis AG, priority 2001, dated 2005).
Several values for one entry are separate records, joined by “and”; a condition that tells them apart may be missing. Equal entries are not always repeated.

Each molecule was assayed against T1, chymotrypsin-like activity of the 20S proteasome (Homo sapiens, UniProt P20618+P28074) (assay: Inhibition of the chymotrypsin-like activity of the 20S proteasome (Suc-LLVY-AMC hydrolysis)). Conditions: purified human placenta 20S proteasome, Suc-LLVY-AMC substrate, read-out: IC50 [μM] (results of one or two experiments).
T1 construct: purified human placenta 20S proteasome; tissue Diabetes Forschungsinstitut, Düsseldorf, Germany; host or cells: human placenta
Type: biochemical
Procedure, shortened: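 Purified human placenta 20S proteasome was preincubated 60 min at room temperature with compound (20 μM final) in 20 mM Tris/HCl pH 8.0 with 5 mM CaCl2. Suc-LLVY-AMC (80 μM final) was then hydrolysed for 3-24 h at 37° C, with fluorescence read at ex 355/em 460 nm. IC50 is the concentration leaving 50% activity.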
With `COc1cc(C[C@H](Nc2cccc(-c3ccccc3)c2)C(=O)N[C@H](C(=O)NC(CC(C)C)B2OC(C)(C)C(C)(C)O2)C(C)C)cc(OC)c1OC` (stereo partly drawn) [Example 23, (S)-2-[(S)-2-(Biphenyl-3-ylamino)-3-(3,4,5-trimethoxy-phenyl)-propionylamino]-3-methyl-N-[3-methyl-1-(4,4,5,5-tetramethyl-[1,3,2]dioxaborolan-2-yl)-butyl]-butyramide] the IC50 was 0.0021 µM. Molecule `COc1ccc(C[C@H](NC(=O)Cc2cccc(Oc3ccccc3)c2)C(=O)N[C@H](C(=O)N[C@@H](CC(C)C)B2O[C@@H]3C[C@@H]4C[C@@H](C4(C)C)[C@]3(C)O2)C(C)C)cc1OC` [Example 25, (S)-2-{(S)-3-(3,4-Dimethoxy-phenyl)-2-[2-(3-phenoxy-phenyl)-acetylamino]-propionylamino}-3-methyl-N-[(R)-3-methyl-1-((1S,2S,6R,8S)-2,9,9-trimethyl-3,5-dioxa-4-bora-tricyclo[6.1.1.0^2,6]dec-4-yl)-butyl]-butyramide] has an IC50 of 0.0008 µM. Work on `COc1cc(C[C@H](NC(=O)Cc2cccc(Oc3ccccc3)c2)C(=O)N[C@H](C(=O)N[C@@H](CC(C)C)B2O[C@@H]3C[C@@H]4C[C@@H](C4(C)C)[C@]3(C)O2)C(C)C)cc(OC)c1OC` [Example 27, (S)-3-Methyl-N-[(R)-3-methyl-1-((1S,2S,6R,8S)-2,9,9-trimethyl-3,5-dioxa-4-bora-tricyclo[6.1.1.0^2,6]dec-4-yl)-butyl]-2-[(S)-2-[2-(3-phenoxy-phenyl)-acetylamino]-3-(3,4,5-trimethoxy-phenyl)-propionylamino]-butyramide] yielded an IC50 of 0.0003 µM. `COc1ccc(C[C@H](NC(=O)CCc2ccccc2)C(=O)N[C@@H](C)C(=O)N[C@@H](CC(C)C)B(O)O)c(OC)c1OC` [Example 48, (R)-3-Methyl-1-{(S)-2-[(S)-2-(3-phenyl-propionylamino)-3-(2,3,4-trimethoxyphenyl)-propionylamino]-propionylamino}-butylboronic acid] showed an IC50 of 0.0007 µM. With `COc1ccc(C[C@H](Nc2cccc(-c3ccccc3)c2)C(=O)N[C@H](C(=O)N[C@@H](CC(C)C)B(O)O)C(C)C)cc1OC` [Example 10, (R)-1-{(S)-2-[(S)-2-(Biphenyl-3-ylamino)-3-(3,4-dimethoxy-phenyl)-propionylamino]-3-methyl-butyrylamino}-3-methyl-butylboronic acid] the IC50 was 0.0029 µM and 0.004 µM.
